Here are results for 26 compounds from US20250368628A1, “METHODS AND COMPOUNDS FOR MODULATING INHERITED GENETIC DISEASES” (Design Therapeutics, Inc., priority 2022, published 2025).

The subject of the first assay is Myotonic Dystrophy 1 affected patient fibroblasts (Coriel GM04602; 1600 CTG repeats). Kind of assay: DM1 foci reduction assay (EC50 assay; CAG10-Cy3 FISH, foci per nucleus). The conditions noted are these: Homo sapiens, Fibroblast; DM1 patient fibroblasts, 48 h treatment, foci per nucleus; read-out: DM1 EC50, 48 h. In kind it is cell-based. The method, then: DM1 Foci Reduction Assay Methods
Myotonic Dystrophy 1 affected patient fibroblasts (Coriel GM04602; 1600 CTG repeats) and wild type fibroblasts (Coriell GM07492; control line) were cultured separately in Gibco DMEM (1×)+4.5 g/L D-Glucose+L-Glutamine+[…] Sodium Pyruvate, supplemented with 10% FBS and 1× Pen/Strep. Cells were maintained in an incubator at 37° C. and 5% CO2 with media refreshed every 48-72 hours.
At 90-95% confluency, both cell lines were harvested using Trypl-E then pelleted at 500×g for 5 minutes and were resuspended in fresh media. DM1 fibroblasts were seeded in Agilent 96 well black plates at a density of 5,000 cells/well in 200 μL media; and 8 wells were reserved for control fibroblasts. Plates were returned to incubator for 24 hours at 37° C. and 5% CO2.
Compounds were diluted from 10 mM stock to 1 mM in DMSO and then diluted once more to 6 μM (2× concentration) in media. Media was removed from all plates and cells were replenished with 100 μL media. Cells were treated in 8-point dose response, 1:3 fold dilution, 3 μM top dose via addition of 100 μL of 6 μM (2× concentration) compound to the 100 μL media with cells. Plates were returned to incubator for 48 hours at 37° C. and 5% CO2.
Following treatment, compounds were removed, and plates were washed with PBS, then cells were fixed in 75 μL 4% PFA solution for 20 minutes at room temperature. Plates were washed twice with PBS and twice with cold 70% ethanol before permeabilization with 250 μL cold 70% ethanol for 24-72 hours at −20° C.
After permeabilization, plates were washed once with a 30% formamide and 2×SSC buffer and rehydrated in that buffer for 15 minutes at room temperature. Cells were incubated overnight at 37° C. in 75 μL of a hybridization solution containing 30% formamide, 2×SSC, 25 mg/mL dextran sulfate, 2.5 mg/mL BSA, 0.2 μg/mL Herring sperm DNA, 2 mM vanadyl-ribonucleoside complex, and 5 nM CAG10-Cy3 probe.
Plates were washed once with 30% formamide in 2×SSC buffer, then twice with the buffer for 30 minutes at 37° C., 300 RPM in an incubating plate shaker. Cells were stained with 75 μL of 2.5 μg/mL DAPI in PBS for 5 minutes at room temperature. Plates were then washed twice with PBS and stored in 250 μL PBS. Plates were sealed with adhesive foil and wiped down with 70% ethanol.
Cells were imaged on a Cytation5 with a 20× objective sampling from 4 areas of each well. Nuclei were captured under DAPI channel and foci under RFP channel. Plates were analyzed on an average foci per nucleus per well basis.
Turning to `CCOC(=O)CCNC(=O)c1nc(NC(=O)c2cc(NC(=O)CCNC(=O)c3nc(NC(=O)CCCNC(=O)c4cc(NC(=O)c5nc(NC(=O)CCNC(=O)c6cc(NC(=O)c7nccn7C)cn6C)cn5C)cn4C)cn3C)cn2C)cn1C` [Compound B-65], the EC50 is 0.1 to 0.5 µM.

As for `CCCNC(=O)c1cc(NC(=O)c2nc(NC(=O)CCNC(=O)c3cc(NC(=O)c4nc(NC(=O)[C@H](N)CCNC(=O)c5cc(NC(=O)c6nc(NC(=O)CCNC(=O)c7cc(NC(=O)c8nccn8C)cn7C)cn6C)cn5C)cn4C)cn3C)cn2C)cn1C` [Compound B-6], the half-maximal effective concentration (EC50) fell in the range of 0.5 to 1 µM.

As for `CN(CCCNC(=O)OC(C)(C)C)CCCNC(=O)c1cc(NC(=O)CCNC(=O)c2nc(NC(=O)CCCNC(=O)c3cc(NC(=O)c4nc(NC(=O)CCNC(=O)c5cc(NC(=O)c6nccn6C)cn5C)cn4C)cn3CCCCCCN=[N+]=[N-])cn2C)cn1C` [Compound B-357], the EC50 is over 1 µM. Regarding `CN(C)CCCCCNC(=O)CCNC(=O)c1nc(NC(=O)c2cc(NC(=O)CCNC(=O)c3nc(NC(=O)CCCNC(=O)c4cc(NC(=O)c5nc(NC(=O)CCNC(=O)c6cc(NC(=O)c7nccn7C)cn6C)cn5C)cn4C)cn3C)cn2C)cn1C` [Compound B-41], the concentration giving a half-maximal response (EC50) lay in the range of 0.1 to 0.5 µM.

Regarding `CN1CCC(CN2CCN(C(=O)CCNC(=O)c3nc(NC(=O)c4cc(NC(=O)CCNC(=O)c5nc(NC(=O)CCCNC(=O)c6cc(NC(=O)c7nc(NC(=O)CCNC(=O)c8cc(NC(=O)c9nccn9C)cn8C)cn7C)cn6C)cn5C)cn4C)cn3C)CC2)CC1` [Compound B-116], the EC50 was over 1 µM. Turning to `CN(C)CCCNC(=O)c1cc(NC(=O)CCNC(=O)c2nc(NC(=O)CCCNC(=O)c3cc(NC(=O)c4nc(NC(=O)CCNC(=O)c5cc(NC(=O)c6nccn6C)cn5C)cn4C)cn3CCCCCCN=[N+]=[N-])cn2C)cn1C` [Compound B-254], the concentration giving a half-maximal response (EC50) is over 1 µM. Same read-out and setting: in the case of `Cn1cc(NC(=O)c2nc(NC(=O)CCNC(=O)c3cc(NC(=O)c4nccn4C)cn3C)cn2C)cc1C(=O)NCCCC(=O)Nc1cn(C)c(C(=O)NCCC(=O)Nc2cc(C(=O)Nc3cn(C)c(C(=O)NCCC(=O)NCCOCCOCCOCCN4CCC(C#CC#CC5CCN(Cc6ccc(C(C)(C)C)cc6)CC5)CC4)n3)n(C)c2)n1` [Compound B-176] it was over 1 µM. The same measure, in the same setting: in the case of `CCCCCNC(=O)CCNC(=O)c1nc(NC(=O)c2cc(NC(=O)CCNC(=O)c3nc(NC(=O)CCCNC(=O)c4cc(NC(=O)c5nc(NC(=O)CCNC(=O)c6cc(NC(=O)c7nccn7C)cn6C)cn5C)cn4CCCCC(=O)N(CCOCCOCCOCCOC)CCOCCOCCOCCOC)cn3C)cn2C)cn1C` [Compound B-261] it was 0.1 to 0.5 µM. The same measure, in the same setting: under `CCN(CC)CCCC[C@H](NC(=O)c1cccc(C(=O)O)c1)C(=O)NCCOCCOCCOCCNC(=O)c1nc(NC(=O)c2cc(NC(=O)CCNC(=O)c3nc(NC(=O)CCCNC(=O)c4cc(NC(=O)c5nc(NC(=O)CCNC(=O)c6cc(NC(=O)c7nccn7C)cn6C)cn5C)cn4C)cn3C)cn2C)cn1C` [Compound B-221] stands over 1 µM.

Turning to `CCN(CC)CCCC[C@H](NC(=O)c1cccc(C(=O)O)c1)C(=O)NCCOCCOCCOCCOCCOCCNC(=O)CCNC(=O)c1nc(NC(=O)c2cc(NC(=O)CCNC(=O)c3nc(NC(=O)CCCNC(=O)c4cc(NC(=O)c5nc(NC(=O)CCNC(=O)c6cc(NC(=O)c7nccn7C)cn6C)cn5C)cn4C)cn3C)cn2C)cn1C` [Compound B-222], the EC50 fell in the range of 0.5 to 1 µM. The same measure, in the same setting: in the case of `CCCCCC(=O)N1CCC(C#CC#CC2CCN(CCCCCNC(=O)CCNC(=O)c3nc(NC(=O)c4cc(NC(=O)CCNC(=O)c5nc(NC(=O)CCCNC(=O)c6cc(NC(=O)c7nc(NC(=O)CCNC(=O)c8cc(NC(=O)c9nccn9C)cn8C)cn7C)cn6C)cn5C)cn4C)cn3C)CC2)CC1` [Compound B-182] it was 0.5 to 1 µM; in that of `CN(C)CC#CC#Cc1ccc(NC(=O)CCNC(=O)c2nc(NC(=O)c3cc(NC(=O)CCNC(=O)c4nc(NC(=O)CCCNC(=O)c5cc(NC(=O)c6nc(NC(=O)CCNC(=O)c7cc(NC(=O)c8nccn8C)cn7C)cn6C)cn5C)cn4C)cn3C)cn2C)cc1` [Compound B-139], over 1 µM.

Take `CCCNC(=O)CCNC(=O)c1nc(NC(=O)c2cc(NC(=O)CCNC(=O)c3nc(NC(=O)CCCNC(=O)c4cc(NC(=O)c5nc(NC(=O)CCNC(=O)c6cc(NC(=O)c7nccn7C)cn6CCCCCCN)cn5C)cn4C)cn3C)cn2C)cn1C` [Compound B-61]: the 50% effective concentration (EC50) was over 1 µM. Same read-out and setting: under `CCN(CC)CCCC[C@H](NC(=O)c1cccc(C(=O)O)c1)C(=O)NCCOCCOCCOCCNC(=O)CCNC(=O)c1nc(NC(=O)c2cc(NC(=O)CCNC(=O)c3nc(NC(=O)CCCNC(=O)c4cc(NC(=O)c5nc(NC(=O)CCNC(=O)c6cc(NC(=O)c7nccn7C)cn6C)cn5C)cn4C)cn3C)cn2C)cn1C` [Compound B-223] stands over 1 µM; under `CCCN(CCC)C(=O)c1nc(NC(=O)c2cc(NC(=O)CCNC(=O)c3nc(NC(=O)CCCNC(=O)c4cc(NC(=O)c5nc(NC(=O)CCNC(=O)c6cc(NC(=O)c7nccn7C)cn6C)cn5C)cn4C)cn3C)cn2C)cn1C` [Compound B-104], over 1 µM.

Consider `CCCNC(=O)CCNC(=O)c1nc(NC(=O)c2cc(NC(=O)CCNC(=O)c3nc(NC(=O)CCCNC(=O)c4cc(NC(=O)c5nc(NC(=O)CCNC(=O)c6cc(NC(=O)c7nccn7C)cn6C)cn5C)cn4C)cn3C)cn2CCCCCCN=[N+]=[N-])cn1C` [Compound B-56], for which the EC50 was in the range of 0.1 to 0.5 µM. On the same count and under the same terms, in the case of `Cn1cc(NC(=O)c2nc(NC(=O)CCNC(=O)c3cc(NC(=O)c4nccn4C)cn3C)cn2C)cc1C(=O)NCCCC(=O)Nc1cn(C)c(C(=O)NCCC(=O)Nc2cc(C(=O)Nc3cn(C)c(C(=O)NCCC(=O)NCCNc4ccc(C(C)(C)C)cc4)n3)n(C)c2)n1` [Compound B-181] it was over 1 µM; in that of `CCCNC(=O)CCNC(=O)c1nc(NC(=O)c2cc(NC(=O)CCNC(=O)c3nc(NC(=O)CCCNC(=O)c4cc(NC(=O)c5nc(NC(=O)CCNC(=O)c6cc(NC(=O)c7nccn7C)c[nH]6)cn5C)c[nH]4)cn3C)c[nH]2)cn1C` [Compound B-62], over 1 µM; in that of `CCN(CC)CCCC[C@H](NC(=O)c1cccc(C(=O)O)c1)C(=O)NCCOCCOCCOCCOCCOCCNC(=O)c1nc(NC(=O)c2cc(NC(=O)CCNC(=O)c3nc(NC(=O)CCCNC(=O)c4cc(NC(=O)c5nc(NC(=O)CCNC(=O)c6cc(NC(=O)c7nccn7C)cn6C)cn5C)cn4C)cn3C)cn2C)cn1C` [Compound B-220], over 1 µM.

With `CCN(CC)CCCC[C@H](NC(=O)c1ccncc1)C(=O)NCCOCCOCCOCCOCCOCCNC(=O)CCNC(=O)c1nc(NC(=O)c2cc(NC(=O)CCNC(=O)c3nc(NC(=O)CCCNC(=O)c4cc(NC(=O)c5nc(NC(=O)CCNC(=O)c6cc(NC(=O)c7nccn7C)cn6C)cn5C)cn4C)cn3C)cn2C)cn1C` [Compound B-93], the EC50 was over 1 µM. As for `CCN(CC)CCCC[C@@H](NC(C)=O)C(=O)NCCOCCOCCNC(=O)CCNC(=O)c1nc(NC(=O)c2cc(NC(=O)CCNC(=O)c3nc(NC(=O)CCCNC(=O)c4cc(NC(=O)c5nc(NC(=O)CCNC(=O)c6cc(NC(=O)c7nccn7C)cn6C)cn5C)cn4C)cn3C)cn2C)cn1C` [Compound B-102], the EC50 lay within 0.5 to 1 µM. The same measure, in the same setting: in the case of `Cn1cc(NC(=O)c2nc(NC(=O)CCNC(=O)c3cc(NC(=O)c4nccn4C)cn3C)cn2C)cc1C(=O)NCCCC(=O)Nc1cn(C)c(C(=O)NCCC(=O)Nc2cc(C(=O)Nc3cn(C)c(C(=O)N4CCC(N5CCNCC5)CC4)n3)n(C)c2)n1` [Compound B-106] it was over 1 µM; in that of `COCCOCCOCCOCCN(CCOCCOCCOCCOC)C(=O)CCCCn1cc(NC(=O)CCNC(=O)c2nc(NC(=O)CCCNC(=O)c3cc(NC(=O)c4nc(NC(=O)CCNC(=O)c5cc(NC(=O)c6nccn6C)cn5C)cn4C)cn3C)cn2C)cc1C(=O)Nc1cn(C)c(C(=O)NCCC(=O)N2CCC(N3CCNCC3)CC2)n1` [Compound B-160], over 1 µM.

Still in this assay, the particulars now being: Homo sapiens, Fibroblast; DM1 patient fibroblasts, foci per nucleus, 48 h treatment; read-out: DM1 EC50, 48 h.
On to `CCCNC(=O)c1nc(NC(=O)c2cc(NC(=O)CCNC(=O)c3nc(NC(=O)CC4(CNC(=O)c5cc(NC(=O)c6nc(NC(=O)CCNC(=O)c7cc(NC(=O)c8nccn8CC(F)(F)F)cn7C)cn6C)cn5C)CNC4)cn3C)cn2C)cn1C` [Compound B-440], for which the half-maximal effective concentration (EC50) is 0.1 to 0.5 µM.

As to `CN(C)CCCCNC(=O)c1nc(NC(=O)c2cc(NC(=O)CCNC(=O)c3nc(NC(=O)CC4(CNC(=O)c5cc(NC(=O)c6nc(NC(=O)CCNC(=O)c7cc(NC(=O)c8nccn8C)cn7C)cn6C)cn5C)CC4)cn3C)cn2C)cn1C` [Compound B-434], the EC50 was under 0.1 µM. On the same count and under the same terms, under `CCn1cc(NC(=O)c2nc(NC(=O)CCNC(=O)c3cc(NC(=O)c4nccn4C)cn3C)cn2C)cc1C(=O)NCC1(CC(=O)Nc2cn(C)c(C(=O)NCCC(=O)Nc3cc(C(=O)Nc4cn(C)c(C(=O)NCCCCN(C)C)n4)n(C)c3)n2)CC1` [Compound B-436] stands under 0.1 µM.
